From patent US11834453B2, “Substituted pyrimido[5,4-d]pyrimidines as HER2 inhibitors” (Array BioPharma Inc., priority 2020, dated 2023)
Read-outs that look alike come from different tables or passages of the source.

Key:
MDR1 (P-gp) = MDR1 (P-gp) (Homo sapiens (Human), UniProt P08183); experiment: MDR1 transfected LLC-PK1 permeability/efflux, Assay 6; details: pig
[1] = molecular target: ErbB2 insYVMA (HER2-YVMA, SEQ ID NO: 2) (Homo sapiens, UniProt P04626, INS775YVMA/P1170A); experiment: biochemical; details: ErbB2 insYVMA enzyme assay
ErbB2 insYVMA (HER2-YVMA, SEQ ID NO: 2), sequence (P04626 with tags, fused parts or gaps INS775YVMA/P1170A limits assumed): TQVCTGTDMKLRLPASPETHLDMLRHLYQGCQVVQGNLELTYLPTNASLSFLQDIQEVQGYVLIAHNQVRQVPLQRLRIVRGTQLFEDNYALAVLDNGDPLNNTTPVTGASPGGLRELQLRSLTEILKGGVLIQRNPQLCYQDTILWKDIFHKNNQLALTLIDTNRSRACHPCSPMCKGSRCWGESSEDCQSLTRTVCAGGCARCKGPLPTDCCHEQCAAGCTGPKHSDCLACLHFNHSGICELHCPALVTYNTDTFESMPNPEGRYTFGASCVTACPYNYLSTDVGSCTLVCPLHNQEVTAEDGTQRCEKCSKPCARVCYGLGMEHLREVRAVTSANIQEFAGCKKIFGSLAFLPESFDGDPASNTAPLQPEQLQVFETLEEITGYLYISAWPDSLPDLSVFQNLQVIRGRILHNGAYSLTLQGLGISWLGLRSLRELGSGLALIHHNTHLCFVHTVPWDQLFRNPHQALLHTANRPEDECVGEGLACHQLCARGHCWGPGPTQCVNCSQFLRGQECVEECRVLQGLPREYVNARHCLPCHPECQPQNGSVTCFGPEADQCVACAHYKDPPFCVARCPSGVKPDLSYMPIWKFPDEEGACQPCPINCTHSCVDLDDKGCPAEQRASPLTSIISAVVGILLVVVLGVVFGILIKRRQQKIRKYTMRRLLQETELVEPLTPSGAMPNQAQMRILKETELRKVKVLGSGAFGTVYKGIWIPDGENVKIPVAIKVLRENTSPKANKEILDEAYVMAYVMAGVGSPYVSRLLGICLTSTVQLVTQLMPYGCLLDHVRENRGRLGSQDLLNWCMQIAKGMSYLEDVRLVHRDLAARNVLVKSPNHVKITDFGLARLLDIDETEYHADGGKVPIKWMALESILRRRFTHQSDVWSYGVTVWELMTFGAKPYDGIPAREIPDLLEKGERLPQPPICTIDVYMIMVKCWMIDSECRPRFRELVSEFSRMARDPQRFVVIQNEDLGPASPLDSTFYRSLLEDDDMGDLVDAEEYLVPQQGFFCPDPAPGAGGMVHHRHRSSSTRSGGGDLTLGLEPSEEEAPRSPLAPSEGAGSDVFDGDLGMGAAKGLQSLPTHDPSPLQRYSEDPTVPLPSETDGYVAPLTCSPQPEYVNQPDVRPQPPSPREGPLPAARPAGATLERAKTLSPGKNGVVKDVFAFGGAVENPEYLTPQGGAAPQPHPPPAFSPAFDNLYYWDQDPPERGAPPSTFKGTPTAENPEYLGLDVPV

ErbB2 WT = ErbB2 WT (Homo sapiens (Human), UniProt P04626); experiment: ErbB enzyme assay (CisBio HTRF KinEASE-TK), Assay 2; type: biochemical
ErbB2 WT, sequence (P04626 23-1255): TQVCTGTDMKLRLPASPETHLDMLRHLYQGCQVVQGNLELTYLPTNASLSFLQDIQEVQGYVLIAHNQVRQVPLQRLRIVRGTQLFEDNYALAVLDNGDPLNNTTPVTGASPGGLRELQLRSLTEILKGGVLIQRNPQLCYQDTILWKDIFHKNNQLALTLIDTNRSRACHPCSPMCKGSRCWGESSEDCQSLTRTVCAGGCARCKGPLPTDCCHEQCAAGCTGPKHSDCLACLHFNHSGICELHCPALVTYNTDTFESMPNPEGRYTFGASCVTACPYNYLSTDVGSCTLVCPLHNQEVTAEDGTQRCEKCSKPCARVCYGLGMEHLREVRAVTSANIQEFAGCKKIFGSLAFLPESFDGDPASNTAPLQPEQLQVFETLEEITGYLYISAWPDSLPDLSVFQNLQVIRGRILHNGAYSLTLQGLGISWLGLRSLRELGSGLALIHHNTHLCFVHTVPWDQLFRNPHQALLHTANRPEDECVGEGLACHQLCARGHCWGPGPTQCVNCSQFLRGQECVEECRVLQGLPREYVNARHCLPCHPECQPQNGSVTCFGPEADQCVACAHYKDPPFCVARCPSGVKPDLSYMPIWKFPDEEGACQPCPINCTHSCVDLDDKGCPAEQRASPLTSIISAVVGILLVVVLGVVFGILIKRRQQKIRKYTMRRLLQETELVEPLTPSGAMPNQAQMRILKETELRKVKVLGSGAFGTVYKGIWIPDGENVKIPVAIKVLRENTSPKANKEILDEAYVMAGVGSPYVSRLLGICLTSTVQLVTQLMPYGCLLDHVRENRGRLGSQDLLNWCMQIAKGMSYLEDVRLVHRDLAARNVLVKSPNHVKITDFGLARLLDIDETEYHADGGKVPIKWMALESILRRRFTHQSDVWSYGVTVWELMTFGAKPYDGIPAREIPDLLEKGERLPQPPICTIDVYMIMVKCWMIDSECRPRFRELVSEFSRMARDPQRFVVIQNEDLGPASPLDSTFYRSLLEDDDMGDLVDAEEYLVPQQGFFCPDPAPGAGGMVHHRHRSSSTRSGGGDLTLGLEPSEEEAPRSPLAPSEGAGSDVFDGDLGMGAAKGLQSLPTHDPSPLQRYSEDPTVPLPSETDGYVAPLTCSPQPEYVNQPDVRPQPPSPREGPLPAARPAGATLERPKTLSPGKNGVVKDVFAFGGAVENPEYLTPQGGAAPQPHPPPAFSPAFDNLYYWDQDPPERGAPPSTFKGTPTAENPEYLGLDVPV
Procedure, shortened: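 ErbB2 phosphorylates 250 nM biotin-TK substrate at 1 mM ATP in 25 mM HEPES pH 7.4, 10 mM MgCl2, 0.01% Triton X-100 and 2% DMSO, for 30 min at 22 °C. Product is detected by HTRF with Sa-XL665 and TK-Ab-Cryptate. Percent of control is set by DMSO-only wells and pre-quenched wells.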

BCRP = BCRP (Homo sapiens (Human), UniProt Q9UNQ0); experiment: BCRP transfected MDCKII canine Mdr1 knockout permeability/efflux, Assay 9; details: dog
BCRP, sequence (Q9UNQ0 whole entry): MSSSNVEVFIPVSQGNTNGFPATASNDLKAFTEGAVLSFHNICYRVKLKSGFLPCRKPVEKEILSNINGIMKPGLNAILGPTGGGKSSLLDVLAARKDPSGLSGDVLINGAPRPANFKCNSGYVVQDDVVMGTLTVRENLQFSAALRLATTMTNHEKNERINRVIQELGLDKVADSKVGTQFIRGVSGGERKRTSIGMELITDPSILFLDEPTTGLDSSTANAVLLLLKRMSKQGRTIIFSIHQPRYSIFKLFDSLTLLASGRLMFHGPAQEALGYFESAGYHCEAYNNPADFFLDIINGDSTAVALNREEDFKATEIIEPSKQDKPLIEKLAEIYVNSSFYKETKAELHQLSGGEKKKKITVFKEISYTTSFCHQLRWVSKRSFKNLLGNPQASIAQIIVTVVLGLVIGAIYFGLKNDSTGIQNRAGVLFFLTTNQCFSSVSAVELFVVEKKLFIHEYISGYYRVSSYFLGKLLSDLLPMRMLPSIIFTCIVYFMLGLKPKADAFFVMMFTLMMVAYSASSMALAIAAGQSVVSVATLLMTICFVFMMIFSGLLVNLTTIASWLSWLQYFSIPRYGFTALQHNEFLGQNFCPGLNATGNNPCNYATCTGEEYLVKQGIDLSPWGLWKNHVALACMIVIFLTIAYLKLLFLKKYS

EGFR wild type (EGFR WT) = EGFR wild type (EGFR WT) (Homo sapiens (Human), UniProt P00533); experiment: Cellular phosphorylation assay, EGF-stimulated EGFR phosphorylation in engineered NIH 3T3 cells, Phospho-EGFR DuoSet IC ELISA, Assay 5; type: cell-based
Procedure, shortened: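 NIH 3T3 cells expressing EGFR WT (20,000/well, attached overnight) were exposed to serially diluted compound for 1 h at 37 °C, then stimulated with 100 ng/ml rEGF for 10 min. Phospho-EGFR in lysates measured by sandwich ELISA optical density; IC50 from curves.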

EGFR = EGFR (Homo sapiens (Human), UniProt P00533); experiment: ErbB enzyme assay (CisBio HTRF KinEASE-TK), Assay 3; type: biochemical
Procedure, shortened: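 Inhibition is measured as reduced peptide phosphorylation by HTRF KinEASE-TK at 1 mM ATP and 250 nM substrate, 30 min at 22 °C. Values are IC50s from a 4-parameter logistic fit.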

[2] = molecular target: ErbB2 with Exon 20 YVMA insertion (HER2-YVMA) (Homo sapiens (Human), UniProt P04626, INS775YVMA); experiment: Cellular phosphorylation assay, constitutive ErbB2 phosphorylation (Y1196) in engineered NIH 3T3 cells, Assay 4; type: cell-based
ErbB2 with Exon 20 YVMA insertion (HER2-YVMA), sequence (P04626 other isoform, or with tags, fused parts or gaps ins YVMA behind 775): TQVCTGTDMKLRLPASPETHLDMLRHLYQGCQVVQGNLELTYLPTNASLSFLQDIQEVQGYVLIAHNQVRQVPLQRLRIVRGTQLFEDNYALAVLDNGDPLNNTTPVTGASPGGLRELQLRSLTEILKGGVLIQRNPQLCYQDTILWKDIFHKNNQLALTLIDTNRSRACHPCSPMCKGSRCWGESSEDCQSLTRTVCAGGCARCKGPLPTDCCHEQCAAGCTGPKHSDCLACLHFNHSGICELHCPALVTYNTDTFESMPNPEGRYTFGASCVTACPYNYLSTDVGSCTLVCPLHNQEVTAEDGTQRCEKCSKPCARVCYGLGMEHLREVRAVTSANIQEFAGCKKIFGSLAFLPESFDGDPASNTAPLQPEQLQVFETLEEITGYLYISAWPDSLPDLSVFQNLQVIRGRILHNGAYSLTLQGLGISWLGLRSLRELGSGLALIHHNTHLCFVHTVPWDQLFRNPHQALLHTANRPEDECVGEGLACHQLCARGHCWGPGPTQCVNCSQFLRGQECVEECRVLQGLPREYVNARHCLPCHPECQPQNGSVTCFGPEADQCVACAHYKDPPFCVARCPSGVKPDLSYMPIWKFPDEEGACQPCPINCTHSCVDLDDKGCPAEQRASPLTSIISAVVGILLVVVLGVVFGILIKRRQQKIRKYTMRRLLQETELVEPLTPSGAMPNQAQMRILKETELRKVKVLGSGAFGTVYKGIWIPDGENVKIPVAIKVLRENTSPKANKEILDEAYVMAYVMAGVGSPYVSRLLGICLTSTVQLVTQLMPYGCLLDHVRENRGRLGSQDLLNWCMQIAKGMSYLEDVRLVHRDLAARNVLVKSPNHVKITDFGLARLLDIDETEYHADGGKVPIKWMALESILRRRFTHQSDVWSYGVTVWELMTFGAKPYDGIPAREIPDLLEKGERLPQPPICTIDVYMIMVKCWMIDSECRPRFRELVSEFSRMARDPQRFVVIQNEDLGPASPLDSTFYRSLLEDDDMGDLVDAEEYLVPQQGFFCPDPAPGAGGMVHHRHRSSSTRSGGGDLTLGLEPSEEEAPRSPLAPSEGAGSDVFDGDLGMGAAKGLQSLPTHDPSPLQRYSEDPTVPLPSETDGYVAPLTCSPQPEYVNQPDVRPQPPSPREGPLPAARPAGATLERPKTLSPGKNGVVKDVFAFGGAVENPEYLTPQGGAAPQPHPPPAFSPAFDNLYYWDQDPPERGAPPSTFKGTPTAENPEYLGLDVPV
Procedure, shortened: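 Engineered NIH 3T3 cells expressing HER2-YVMA treated with compounds 1 h at 37 °C, then formaldehyde-fixed and methanol-permeabilized. pErbB2 Y1196 detected by in-cell infrared immunofluorescence, normalized to GAPDH. IC50 from the normalized curves.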

[3] = LLC-PK1, Assay 6 Pe Ratio, efflux ratio Papp(B-A)/Papp(A-B), MDR1 transfected LLC-PK1
[4] = Assay 9 Pe Ratio, efflux ratio Papp(B-A)/Papp(A-B), BCRP transfected MDCKII canine Mdr1 knockout

SMILES	efflux ratio at 2 h, 1 μM (MDR1 (P-gp); [3])	IC50 ([1]; read-out: Assay 1 IC50)	IC50 (ErbB2 WT)	efflux ratio at 2 h, 1 μM (BCRP; [4])	IC50 (EGFR wild type (EGFR WT))	IC50 (EGFR)	IC50 [2]	IC50 ([1]; Assay 1 IC50 (nM))	efflux ratio at 2 h, 1 μM (MDR1 (P-gp); LLC-PK1)	efflux ratio at 2 h, 1 μM (BCRP)
[2H]c1nc(Nc2ccc(Oc3ccc4c(c3)ncn4C)c(C)c2)c2nc(N3CCOCC3)nc([2H])c2n1 [Example 68, N-(3-methyl-4-((1-methyl-1H-benzo[d]imidazol-5-yl)oxy)phenyl)-6-morpholinopyrimido[5,4-d]pyrimidin-2,8-d2-4-amine]	1.8	10.2 nM	16.3 nM	0.9	≥ 5000 nM	8230 nM	10.7 nM	–	–	–
Cc1cc(Nc2ncnc3cnc(-c4ccncc4)nc23)ccc1Oc1ccc2c(c1)ncn2C [Example 47, N-(3-methyl-4-((1-methyl-1H-benzo[d]imidazol-5-yl)oxy)phenyl)-6-(pyridin-4-yl)pyrimido[5,4-d]pyrimidin-4-amine bis(2,2,2-trifluoroacetate)]	1.1	59.6 nM	91 nM	2.3	≥ 5000 nM	≥ 10000 nM	13.4 nM	–	–	–
Cc1ncc(-c2ncc3ncnc(Nc4ccc(Oc5ccc6c(c5)ncn6C)c(C)c4)c3n2)o1 [Example 223]	1.9	91.6 nM	101 nM	3.7	≥ 5000 nM	≥ 10000 nM	12.7 nM	–	–	–
Cc1cc(Nc2ncnc3cnc(N4C[C@H]5C[C@@H]4CO5)nc23)ccc1Oc1cc(F)c2c(c1)ncn2C [Example 204, 6-((1R,4R)-2-oxa-5-azabicyclo[2.2.1]heptan-5-yl)-N-(4-((7-fluoro-1-methyl-1H-benzo[d]imidazol-5-yl)oxy)-3-methylphenyl)pyrimido[5,4-d]pyrimidin-4-amine]	1.3	31.9 nM	108 nM	1.2	≥ 5000 nM	8060 nM	13.1 nM	–	–	–
Cc1cc(Nc2ncnc3cnc(N4CCC[C@H]4C(F)(F)F)nc23)ccc1Oc1ccc2c(c1)ncn2C [Example 249]	0.3	35.9 nM	23.4 nM	3	≥ 5000 nM	≥ 10000 nM	37.4 nM	–	–	–
Cc1cc(Nc2ncnc3cnc(N(C)CC(C)(C)O)nc23)ccc1Oc1ccc2c(c1)ncn2C [Example 163, 2-methyl-1-(methyl(8-((3-methyl-4-((1-methyl-1H-benzo[d]imidazol-5-yl)oxy)phenyl)amino)pyrimido[5,4-d]pyrimidin-2-yl)amino)propan-2-ol]	1.8	28.2 nM	36.8 nM	2.7	≥ 5000 nM	4480 nM	21.6 nM	–	–	–
Cc1cc(Nc2ncnc3cnc(N4C5CCC4COC5)nc23)ccc1Oc1ccc2c(c1)ncn2C [Example 59, 6-(3-oxa-8-azabicyclo[3.2.1]octan-8-yl)-N-(3-methyl-4-((1-methyl-1H-benzo[d]imidazol-5-yl)oxy)phenyl)pyrimido[5,4-d]pyrimidin-4-amine]	2	29.7 nM	44.3 nM	7.4	≥ 5000 nM	≥ 10000 nM	23.5 nM	–	–	–
Cc1cc(Nc2ncnc3cnc(N(C)C4CC4)nc23)ccc1Oc1ccc2c(c1)ncn2C [Example 31, N2-cyclopropyl-N2-methyl-N8-(3-methyl-4-((1-methyl-1H-benzo[d]imidazol-5-yl)oxy)phenyl)pyrimido[5,4-d]pyrimidine-2,8-diamine]	1.3	117 nM	158 nM	1.4	≥ 5000 nM	≥ 10000 nM	23.3 nM	–	–	–
Cc1cc(Nc2ncnc3cnc(N4CCO[C@H]5C[C@H]54)nc23)ccc1Oc1ccc2c(c1)ncn2C (single isomer, unassigned) [Example 60a]	1.8	18.4 nM	28.9 nM	1.2	≥ 5000 nM	8280 nM	16 nM	–	–	–
Cc1cc(Nc2ncnc3cnc(N4CC5CC4CO5)nc23)ccc1Oc1ccc2c(c1)ncn2C.O=C(O)C(F)(F)F (stereo not shown) [Example 77, 6-(2-oxa-5-azabicyclo[2.2.1]heptan-5-yl)-N-(3-methyl-4-((1-methyl-1H-benzo[d]imidazol-5-yl)oxy)phenyl)pyrimido[5,4-d]pyrimidin-4-amine 2,2,2-trifluoroacetate]	1.7	–	48.9 nM	1.9	≥ 5000 nM	≥ 10000 nM	17.2 nM	26 nM	–	–
CNc1ncc2ncnc(Nc3ccc(Oc4cc(F)c5c(c4)ncn5C)c(C)c3)c2n1 [Example 88, N8-(4-((7-fluoro-1-methyl-1H-benzo[d]imidazol-5-yl)oxy)-3-methylphenyl)-N2-methylpyrimido[5,4-d]pyrimidine-2,8-diamine]	1.9	4.8 nM	8.6 nM	1	≥ 5000 nM	9480 nM	5.1 nM	–	–	–
Cc1cc(Nc2ncnc3cnc(N4CCC45COC5)nc23)ccc1Oc1cc(F)c2c(c1)ncn2C [Example 216, N-(4-((7-fluoro-1-methyl-1H-benzo[d]imidazol-5-yl)oxy)-3-methylphenyl)-6-(6-oxa-1-azaspiro[3.3]heptan-1-yl)pyrimido[5,4-d]pyrimidin-4-amine]	–	33.2 nM	48.6 nM	–	≥ 5000 nM	2360 nM	15.7 nM	–	1.7	0.9
Cc1cc(Nc2ncnc3cnc(-c4cnsc4)nc23)ccc1Oc1ccc2c(c1)ncn2C [Example 228]	1.1	115 nM	272 nM	1	≥ 5000 nM	≥ 10000 nM	24.2 nM	–	–	–
Cc1cc(Nc2ncnc3cnc(-c4cnco4)nc23)ccc1Oc1ccc2c(c1)ncn2C [Example 48, N-(3-methyl-4-((1-methyl-1H-benzo[d]imidazol-5-yl)oxy)phenyl)-6-(oxazol-5-yl)pyrimido[5,4-d]pyrimidin-4-amine]	1.6	56.6 nM	189 nM	7.2	≥ 5000 nM	≥ 10000 nM	48.5 nM	–	–	–
Cc1cc(Nc2ncnc3cnc(N4CCO[C@@H](C)C4)nc23)ccc1Oc1ccc2c(c1)ncn2C.O=C(O)C(F)(F)F [Example 74, (S)—N-(3-methyl-4-((1-methyl-1H-benzo[d]imidazol-5-yl)oxy)phenyl)-6-(2-methylmorpholino)pyrimido[5,4-d]pyrimidin-4-amine 2,2,2-trifluoroacetate]	–	–	35.5 nM	–	≥ 5000 nM	3720 nM	14.6 nM	33 nM	1.7	1.3
Cc1cc(Nc2ncnc3cnc(N4C[C@H]5CC[C@@H]4CO5)nc23)ccc1Oc1ccc2c(c1)ncn2C [Example 54, 6-((1R,4R)-2-oxa-5-azabicyclo[2.2.2]octan-5-yl)-N-(3-methyl-4-((1-methyl-1H-benzo[d]imidazol-5-yl)oxy)phenyl)pyrimido[5,4-d]pyrimidin-4-amine]	1.4	5.6 nM	31.3 nM	1.1	≥ 5000 nM	3430 nM	17.8 nM	–	–	–
